# According to ChEMBL document CHEMBL1131161 (J Med Chem, 1998):
# Molecular target: Estrogen receptor (Homo sapiens, UniProt Q92731+P03372)
# Experiment: not given
# Details: cv-1
row,SMILES,IC50
1,CC1=CC(C)(C)Nc2ccc3c(c21)/C(=C/c1ccccc1)Oc1ccccc1-3,> 10000 nM
2,CC1=CC(C)(C)Nc2ccc3c(c21)/C(=C/c1cccc(F)c1)Oc1ccccc1-3,> 10000 nM

# Molecular target: T1, Androgen receptor (Homo sapiens, UniProt P10275)
# T1 sequence (P10275 whole entry): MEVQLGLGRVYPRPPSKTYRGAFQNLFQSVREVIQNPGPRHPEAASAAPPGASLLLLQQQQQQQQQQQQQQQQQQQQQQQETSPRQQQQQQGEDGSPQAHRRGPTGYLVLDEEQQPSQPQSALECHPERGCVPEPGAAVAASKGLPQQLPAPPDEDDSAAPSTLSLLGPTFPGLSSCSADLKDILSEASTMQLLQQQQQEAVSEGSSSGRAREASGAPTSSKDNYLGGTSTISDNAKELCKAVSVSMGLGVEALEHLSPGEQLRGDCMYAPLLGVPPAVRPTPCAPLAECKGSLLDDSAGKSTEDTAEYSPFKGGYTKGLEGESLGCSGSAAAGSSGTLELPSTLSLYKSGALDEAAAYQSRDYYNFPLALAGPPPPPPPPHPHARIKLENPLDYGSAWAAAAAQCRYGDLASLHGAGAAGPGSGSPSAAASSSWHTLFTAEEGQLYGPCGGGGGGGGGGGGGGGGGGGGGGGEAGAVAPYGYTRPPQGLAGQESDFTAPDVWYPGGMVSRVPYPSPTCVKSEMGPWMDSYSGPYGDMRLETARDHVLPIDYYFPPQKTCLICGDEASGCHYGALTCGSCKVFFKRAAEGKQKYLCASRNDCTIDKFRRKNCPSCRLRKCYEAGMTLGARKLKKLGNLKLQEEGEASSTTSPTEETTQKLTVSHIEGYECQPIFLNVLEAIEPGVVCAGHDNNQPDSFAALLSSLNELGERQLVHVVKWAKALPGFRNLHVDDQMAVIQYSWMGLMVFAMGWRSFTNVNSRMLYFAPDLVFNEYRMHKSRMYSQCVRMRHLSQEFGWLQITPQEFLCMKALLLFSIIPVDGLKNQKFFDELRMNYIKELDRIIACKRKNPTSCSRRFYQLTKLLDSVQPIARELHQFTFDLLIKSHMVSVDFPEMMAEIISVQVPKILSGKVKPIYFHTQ
# Experiment: not given
# Details: not given
row,SMILES,Ki
1,CC1=CC(C)(C)Nc2ccc3c(c21)/C(=C/c1ccccc1)Oc1ccccc1-3,2660 nM
2,CC1=CC(C)(C)Nc2ccc3c(c21)/C(=C/c1cccc(F)c1)Oc1ccccc1-3,798 nM

# Molecular target: T1, Androgen receptor
# Experiment: not given
# Details: not given
# Remark: another data set of the same source
row,SMILES,IC50
1,CC1=CC(C)(C)Nc2ccc3c(c21)/C(=C/c1ccccc1)Oc1ccccc1-3,650 nM
2,CC1=CC(C)(C)Nc2ccc3c(c21)/C(=C/c1cccc(F)c1)Oc1ccccc1-3,795 nM

# Molecular target: T2, Glucocorticoid receptor (Homo sapiens, UniProt P04150)
# T2 sequence (P04150 whole entry): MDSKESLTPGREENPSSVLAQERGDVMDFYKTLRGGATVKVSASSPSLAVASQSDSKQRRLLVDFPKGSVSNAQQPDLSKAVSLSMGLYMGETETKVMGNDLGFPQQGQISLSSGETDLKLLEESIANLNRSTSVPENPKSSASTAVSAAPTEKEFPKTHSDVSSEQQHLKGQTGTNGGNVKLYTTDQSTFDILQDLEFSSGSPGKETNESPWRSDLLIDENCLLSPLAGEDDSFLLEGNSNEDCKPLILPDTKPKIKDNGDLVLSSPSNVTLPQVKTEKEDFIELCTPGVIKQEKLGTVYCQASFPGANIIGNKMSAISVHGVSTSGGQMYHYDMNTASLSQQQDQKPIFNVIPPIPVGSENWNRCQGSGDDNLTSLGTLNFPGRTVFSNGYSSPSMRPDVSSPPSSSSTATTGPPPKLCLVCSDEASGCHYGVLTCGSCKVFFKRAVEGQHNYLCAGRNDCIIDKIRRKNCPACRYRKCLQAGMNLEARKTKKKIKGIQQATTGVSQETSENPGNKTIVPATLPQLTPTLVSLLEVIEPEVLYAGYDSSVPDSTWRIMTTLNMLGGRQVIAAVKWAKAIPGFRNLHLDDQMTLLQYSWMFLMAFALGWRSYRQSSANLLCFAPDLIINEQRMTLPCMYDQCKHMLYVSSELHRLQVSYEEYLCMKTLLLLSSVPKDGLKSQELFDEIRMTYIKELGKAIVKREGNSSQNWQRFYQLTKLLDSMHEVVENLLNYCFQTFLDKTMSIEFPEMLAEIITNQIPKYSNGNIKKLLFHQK
# Experiment: not given
# Details: not given
row,SMILES,IC50
1,CC1=CC(C)(C)Nc2ccc3c(c21)/C(=C/c1ccccc1)Oc1ccccc1-3,737 nM
2,CC(=O)O[C@]1(C(C)=O)CC[C@H]2[C@@H]3C[C@H](C)C4=CC(=O)CC[C@]4(C)[C@H]3CC[C@@]21C [MEDROXYPROGESTERONE ACETATE],10 nM
3,CC1=CC(C)(C)Nc2ccc3c(c21)/C(=C/c1cccc(F)c1)Oc1ccccc1-3,458 nM

# Tested on: CV-1
# Experiment: Inhibitory concentration in CV-1 cell
# Assay type: functional, cell-based, Cercopithecidae
# Details: Chlorocebus aethiops
row,SMILES,IC50
1,CC1=CC(C)(C)Nc2ccc3c(c21)/C(=C/c1ccc(C)cc1)Oc1ccccc1-3,590 nM
2,CC1=CC(C)(C)Nc2ccc3c(c21)/C(=C/c1cccc(C)c1)Oc1ccccc1-3,> 10000 nM
3,CC1=CC(C)(C)Nc2ccc3c(c21)/C(=C/c1cc(F)cc(F)c1)Oc1ccccc1-3,> 10000 nM
4,COc1cccc(/C=C2\Oc3ccccc3-c3ccc4c(c32)C(C)=CC(C)(C)N4)c1,425 nM
5,CC1=CC(C)(C)Nc2ccc3c(c21)/C(=C/c1ccc(Cl)cc1)Oc1ccccc1-3,880 nM
6,CC1=CC(C)(C)Nc2ccc3c(c21)/C(=C/c1ccc(Br)cc1)Oc1ccccc1-3,> 10000 nM
7,CC1=CC(C)(C)Nc2ccc3c(c21)/C(=C/c1ccc(F)cc1)Oc1ccccc1-3,> 10000 nM
8,CC1=CC(C)(C)Nc2ccc3c(c21)/C(=C/c1ccccc1)Oc1ccccc1-3,> 10000 nM
9,CC1=CC(C)(C)Nc2ccc3c(c21)/C(=C/c1cccc(F)c1)Oc1ccccc1-3,> 10000 nM

# Molecular target: T2, Glucocorticoid receptor
# Experiment: biochemical
# Details: not given
row,SMILES,Ki
1,CC1=CC(C)(C)Nc2ccc3c(c21)/C(=C/c1ccccc1)Oc1ccccc1-3,299 nM
2,CC1=CC(C)(C)Nc2ccc3c(c21)/C(=C/c1cccc(F)c1)Oc1ccccc1-3,180 nM

# Molecular target: T3, Progesterone receptor (Homo sapiens, UniProt P06401)
# T3 sequence (P06401 whole entry): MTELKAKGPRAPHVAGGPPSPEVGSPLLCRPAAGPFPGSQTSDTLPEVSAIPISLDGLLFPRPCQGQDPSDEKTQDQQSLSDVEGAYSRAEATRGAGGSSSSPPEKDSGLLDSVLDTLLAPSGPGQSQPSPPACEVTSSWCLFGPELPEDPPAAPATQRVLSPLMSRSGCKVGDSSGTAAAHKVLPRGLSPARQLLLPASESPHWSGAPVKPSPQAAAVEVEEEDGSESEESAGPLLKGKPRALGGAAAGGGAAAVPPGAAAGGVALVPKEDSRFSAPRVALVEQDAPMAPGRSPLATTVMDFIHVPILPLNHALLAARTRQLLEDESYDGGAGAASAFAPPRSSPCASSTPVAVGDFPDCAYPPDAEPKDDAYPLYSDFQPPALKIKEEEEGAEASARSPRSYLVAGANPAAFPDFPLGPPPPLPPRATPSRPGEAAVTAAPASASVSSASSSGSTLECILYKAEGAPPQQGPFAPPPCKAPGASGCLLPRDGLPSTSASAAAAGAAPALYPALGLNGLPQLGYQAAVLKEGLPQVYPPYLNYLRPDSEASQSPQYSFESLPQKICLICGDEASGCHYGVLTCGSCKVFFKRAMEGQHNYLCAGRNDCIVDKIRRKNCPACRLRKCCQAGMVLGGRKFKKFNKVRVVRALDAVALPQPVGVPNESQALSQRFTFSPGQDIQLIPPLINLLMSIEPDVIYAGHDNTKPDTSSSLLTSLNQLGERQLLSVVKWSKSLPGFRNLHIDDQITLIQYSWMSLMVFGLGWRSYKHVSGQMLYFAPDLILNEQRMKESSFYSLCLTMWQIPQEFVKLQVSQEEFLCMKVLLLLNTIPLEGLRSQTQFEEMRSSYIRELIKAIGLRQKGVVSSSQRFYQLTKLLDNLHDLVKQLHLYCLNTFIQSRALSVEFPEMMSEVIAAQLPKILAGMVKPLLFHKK
# Experiment: Binding affinity against human progesterone receptor
# Details: not given
row,SMILES,Ki
1,CC1=CC(C)(C)Nc2ccc3c(c21)/C(=C/c1ccc(C)cc1)Oc1ccccc1-3,70 nM
2,CC1=CC(C)(C)Nc2ccc3c(c21)/C(=C/c1cccc(C)c1)Oc1ccccc1-3,39.7 nM
3,CC1=CC(C)(C)Nc2ccc3c(c21)/C(=C/c1cc(F)cc(F)c1)Oc1ccccc1-3,12.6 nM
4,COc1cccc(/C=C2\Oc3ccccc3-c3ccc4c(c32)C(C)=CC(C)(C)N4)c1,53.3 nM
5,CC1=CC(C)(C)Nc2ccc3c(c21)/C(=C/c1ccc(Cl)cc1)Oc1ccccc1-3,60 nM
6,CC1=CC(C)(C)Nc2ccc3c(c21)/C(=C/c1ccc(Br)cc1)Oc1ccccc1-3,8.7 nM
7,CC1=CC(C)(C)Nc2ccc3c(c21)/C(=C/c1ccc(F)cc1)Oc1ccccc1-3,3.5 nM
8,CC1=CC(C)(C)Nc2ccc3c(c21)/C(=C/c1ccccc1)Oc1ccccc1-3,4.9 nM
9,CC1=CC(C)(C)Nc2ccc3c(c21)/C(=C/c1cccc(F)c1)Oc1ccccc1-3,0.83 nM

# Tested on: CV-1
# Experiment: Inhibitory concentration was determined from full dose response curves ranging from 10 E -12 to 10 E -5M in CV-1 cell
# Assay type: functional, Cercopithecidae
# Details: not given
row,SMILES,IC50
1,CC(=O)O[C@]1(C(C)=O)CC[C@H]2[C@@H]3C[C@H](C)C4=CC(=O)CC[C@]4(C)[C@H]3CC[C@@]21C [MEDROXYPROGESTERONE ACETATE],>10000 nM

# Molecular target: T4, Mineralocorticoid receptor (Homo sapiens, UniProt P08235)
# T4 sequence (P08235 whole entry): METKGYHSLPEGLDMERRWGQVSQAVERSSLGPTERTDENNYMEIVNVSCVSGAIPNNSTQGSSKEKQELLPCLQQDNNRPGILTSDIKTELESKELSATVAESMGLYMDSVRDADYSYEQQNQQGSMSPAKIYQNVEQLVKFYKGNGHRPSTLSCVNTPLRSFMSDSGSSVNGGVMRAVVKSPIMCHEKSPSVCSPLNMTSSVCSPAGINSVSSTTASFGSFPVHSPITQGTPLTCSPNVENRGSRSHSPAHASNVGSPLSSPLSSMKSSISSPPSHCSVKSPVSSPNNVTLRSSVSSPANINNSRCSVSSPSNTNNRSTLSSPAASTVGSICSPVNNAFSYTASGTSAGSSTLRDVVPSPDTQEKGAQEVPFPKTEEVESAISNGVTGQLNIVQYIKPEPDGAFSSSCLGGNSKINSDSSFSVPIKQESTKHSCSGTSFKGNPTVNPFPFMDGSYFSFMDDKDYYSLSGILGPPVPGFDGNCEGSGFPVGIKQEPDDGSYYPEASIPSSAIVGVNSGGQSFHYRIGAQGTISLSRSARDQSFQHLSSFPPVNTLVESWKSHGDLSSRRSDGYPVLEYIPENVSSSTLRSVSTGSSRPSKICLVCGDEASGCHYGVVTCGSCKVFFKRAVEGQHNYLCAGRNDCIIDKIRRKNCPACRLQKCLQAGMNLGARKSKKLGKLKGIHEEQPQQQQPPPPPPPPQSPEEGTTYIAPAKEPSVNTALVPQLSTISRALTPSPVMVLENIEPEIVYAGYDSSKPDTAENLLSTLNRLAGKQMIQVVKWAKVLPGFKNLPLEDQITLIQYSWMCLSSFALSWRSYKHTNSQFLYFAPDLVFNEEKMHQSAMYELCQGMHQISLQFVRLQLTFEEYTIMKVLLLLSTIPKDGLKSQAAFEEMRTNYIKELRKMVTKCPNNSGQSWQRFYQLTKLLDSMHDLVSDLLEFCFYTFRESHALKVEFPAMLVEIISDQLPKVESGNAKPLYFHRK
# Experiment: Inhibitory activity (IC50) against human mineralocorticoid receptor expressed in CV-1 cells
# Assay type: functional, cell-based
# Details: not given
row,SMILES,IC50
1,CC1=CC(C)(C)Nc2ccc3c(c21)/C(=C/c1ccccc1)Oc1ccccc1-3,3000 nM
2,CC1=CC(C)(C)Nc2ccc3c(c21)/C(=C/c1cccc(F)c1)Oc1ccccc1-3,> 10000 nM

# Molecular target: T3, Progesterone receptor
# Experiment: Effective concentration (EC50) against human progesterone receptor expressed in CV-1 cell
# Assay type: functional, cell-based
# Details: not given
row,SMILES,EC50
1,CC1=CC(C)(C)Nc2ccc3c(c21)/C(=C/c1ccc(C)cc1)Oc1ccccc1-3,> 10000 nM
2,CC1=CC(C)(C)Nc2ccc3c(c21)/C(=C/c1cccc(C)c1)Oc1ccccc1-3,75 nM
3,CC1=CC(C)(C)Nc2ccc3c(c21)/C(=C/c1cc(F)cc(F)c1)Oc1ccccc1-3,47.7 nM
4,COc1cccc(/C=C2\Oc3ccccc3-c3ccc4c(c32)C(C)=CC(C)(C)N4)c1,> 10000 nM
5,CC1=CC(C)(C)Nc2ccc3c(c21)/C(=C/c1ccc(Cl)cc1)Oc1ccccc1-3,139 nM
6,CC1=CC(C)(C)Nc2ccc3c(c21)/C(=C/c1ccc(Br)cc1)Oc1ccccc1-3,31.5 nM
7,CC1=CC(C)(C)Nc2ccc3c(c21)/C(=C/c1ccc(F)cc1)Oc1ccccc1-3,59.5 nM
8,CC1=CC(C)(C)Nc2ccc3c(c21)/C(=C/c1ccccc1)Oc1ccccc1-3,24.4 nM
9,CC1=CC(C)(C)Nc2ccc3c(c21)/C(=C/c1cccc(F)c1)Oc1ccccc1-3,7.6 nM
